Legend:
[1] = Cytotoxicity test (WST-8), L929; assay type: cell-based; conditions: mouse, L929 fibroblast cells (NCTC clone 929); L929, 24 hours
Procedure: (§1) To investigate the cytotoxicity of the derivative of the present invention, 5 kinds of cell lines (VERO: African green monkey kidney cell line, HFL-1: human embryonic lung cell line, L929: NCTC clone 929, mouse fibroblast cell line, NIH 3T3: mouse embryonic fibroblast cell line, and CHO-K1: Chinese hamster ovary cell line) were distributed in a 96-well plate at the density of 1×10^4 cells/well, which were treated with the compound of the present invention for 24 hours. The water-soluble tetrazolium salt WST-8 was added thereto. The orange colored formazan dye degraded by dehydrogenase in the live cells was read, followed by nonlinear regression to determine 50% growth inhibition concentration.

[2] = tested on: NFAT5 transcript BGT1 and AR; test: NaCl-mediated up-regulation of NFAT5 transcripts (hypertonic condition), RAW264.7 cells, real-time PCR; assay type: cell-based, mouse; conditions: 1 μM pre-treatment 1 hour, NaCl 45 mM 3 hours
Procedure: It was investigated whether or not the factors regulated by NFAT5 under the hypertonic condition could be affected by the compound of Example 1. Particularly, RAW264.7 cells were distributed in a 6-well plate at the density of 1.5×10^5 cells/well, followed by culture and stabilization in 10% FBS-RPMI 1640 medium. The cells were pre-treated with the compound of Example 1 (1 μM) for 1 hour, and then stimulated with NaCl (45 mM) for 3 hours. mRNA was extracted from the cells, from which cDNA was synthesized.

NFAT5 [3] = target: T1, NFAT5 (Mus musculus, UniProt Q9WV30); test: NFAT5 reporter screening (GFP, HCS) in LPS-treated Raw264.7 cells; assay type: cell-based; conditions: for Inhibition rate of NFAT5 transcription (%): Raw264.7 reporter, LPS 1 μg/ml, 48 hours
T1 construct: endogenous in cells; host or cells: RAW264.7
Procedure: To investigate whether or not the derivative of the present invention could inhibit the transcriptional activity of NFAT5, NFAT5 reporter screening was performed. A plasmid vector was constructed by eliminating CMV promoter sequence from the backbone and inserting NFAT5 binding site sequence ([…]) instead. Raw264.7 cells transfected with the vector were cultured in 10% FBS-PRMI (supplemented with 500 μg/ml G418). The cells were distributed in a 96-well plate at the density of 3×10^3 cells/well, followed by further culture for one more day. The cells were treated with LPS at the concentration of 1 μg/ml for 48 hours. Then, the cells were fixed and the expression level of GFP was measured by HCS fluorescence image (Thermo, ArrayScan^VTI).

IL-6 and TNF-α = test: Inflammatory cytokine expression in LPS-treated human mononuclear cells (PBMC), real-time PCR; assay type: cell-based; conditions: LPS 1 μg/ml, compound 1 μg/ml, 6 hours, FIG. 11
Procedure: Particularly, PBMC separated from healthy human blood was treated with LPS (1 μg/ml). The cells were treated with the compound of the present invention at the concentration of 1 μg/ml, followed by culture for 6 hours to investigate whether or not the induced inflammatory cytokine secretion was inhibited by the compound. RNA was separated from the cells, from which the transcription levels of IL-6 and TNF-α were quantified by real-time PCR. The results are shown in FIG. 11 (NC: negative control, PC: positive control).

NFAT5 [4] = test: NFAT5 protein in LPS-stimulated spleen cells of collagen-induced arthritis mice; assay type: in vivo; conditions: CIA mouse spleen cells treated with LPS; FIG. 9
Description: Particularly, the spleen cells of the mouse having arthritis induced by collagen by the same manner as described in Example 11 were stimulated with LPS. Protein was extracted from the cells, followed by quantification of NFAT5 protein.

[5] = Cytotoxicity test (WST-8), NIH 3T3; assay type: cell-based; conditions: mouse, NIH 3T3 embryonic fibroblast cells; NIN3T3, 24 hours
Procedure: as §1

NFAT5 [6] = test: NFAT5 transcription and nuclear localization in LPS-stimulated RAW264.7 cells; assay type: cell-based, mouse; conditions: FIG. 4
Procedure: Particularly, RAW264.7 cells were distributed in a 12-well plate at the density of 1.5×10^5 cells/well, followed by culture in 10% FBS-RPMI 1640 medium. The cells were stabilized for a day. The compound of Example 1 was treated thereto at the concentration of 1 μM for 1 hour, and then the cells were stimulated with LPS for 12 hours. 12 hours later, mRNA was extracted from the cells, and cDNA was synthesized therefrom. PCR (real-time PCR) was performed to measure the expression level of NFAT5 mRNA. The migration of the transcription factor NFAT5 from the cytoplasm to the nucleus was investigated. Particularly, RAW264.7 cells were distributed in a 6-well plate at the density of 6×10^5 cells/well, followed by culture in 10% FBS-RPMI 1640 medium. The cells were pre-treated with the compound 6 (1 μM) for 1 hour, and treated with LPS (1 μg/ml) for 24 hours. Cytoplasm and nucleus proteins were separated from the stimulated cells and the levels of NFAT5 and p65 protein (NF-kB subunit) were measured.

Th17 cells = test: Differentiation of mouse naïve T cells into Th17 cells; assay type: cell-based; conditions: Rag2 KO/OVA-TCRtg naïve T cells, 3 days, secreted cytokine protein; compared with berberine; FIG. 12
Procedure: Particularly, the transgenic mouse (Rag2 KO/OVA-TCRtg) naïve T cells were cultured under the condition of Th17 cell differentiation (treated with IL-6, IL-1β, and TGF-β along with APC cells) for 3 days. Compared with berberine known as a Th17 differentiation inhibitor, the inhibitory effect of the NFAT5 inhibitor on the differentiation of Th17 was measured by quantifying the secreted cytokine protein. Cell survival rate under the same condition was also measured by CCK-8.

[7] = Cytotoxicity test (WST-8), HFL-1; assay type: cell-based; conditions: human, HFL-1 embryonic lung cells; HFL-1, 24 hours
Procedure: as §1

[8] = Cytotoxicity test (WST-8), VERO; assay type: cell-based; conditions: African green monkey, VERO kidney cells
Procedure: as §1

T1 sequence (Q9WV30 whole entry): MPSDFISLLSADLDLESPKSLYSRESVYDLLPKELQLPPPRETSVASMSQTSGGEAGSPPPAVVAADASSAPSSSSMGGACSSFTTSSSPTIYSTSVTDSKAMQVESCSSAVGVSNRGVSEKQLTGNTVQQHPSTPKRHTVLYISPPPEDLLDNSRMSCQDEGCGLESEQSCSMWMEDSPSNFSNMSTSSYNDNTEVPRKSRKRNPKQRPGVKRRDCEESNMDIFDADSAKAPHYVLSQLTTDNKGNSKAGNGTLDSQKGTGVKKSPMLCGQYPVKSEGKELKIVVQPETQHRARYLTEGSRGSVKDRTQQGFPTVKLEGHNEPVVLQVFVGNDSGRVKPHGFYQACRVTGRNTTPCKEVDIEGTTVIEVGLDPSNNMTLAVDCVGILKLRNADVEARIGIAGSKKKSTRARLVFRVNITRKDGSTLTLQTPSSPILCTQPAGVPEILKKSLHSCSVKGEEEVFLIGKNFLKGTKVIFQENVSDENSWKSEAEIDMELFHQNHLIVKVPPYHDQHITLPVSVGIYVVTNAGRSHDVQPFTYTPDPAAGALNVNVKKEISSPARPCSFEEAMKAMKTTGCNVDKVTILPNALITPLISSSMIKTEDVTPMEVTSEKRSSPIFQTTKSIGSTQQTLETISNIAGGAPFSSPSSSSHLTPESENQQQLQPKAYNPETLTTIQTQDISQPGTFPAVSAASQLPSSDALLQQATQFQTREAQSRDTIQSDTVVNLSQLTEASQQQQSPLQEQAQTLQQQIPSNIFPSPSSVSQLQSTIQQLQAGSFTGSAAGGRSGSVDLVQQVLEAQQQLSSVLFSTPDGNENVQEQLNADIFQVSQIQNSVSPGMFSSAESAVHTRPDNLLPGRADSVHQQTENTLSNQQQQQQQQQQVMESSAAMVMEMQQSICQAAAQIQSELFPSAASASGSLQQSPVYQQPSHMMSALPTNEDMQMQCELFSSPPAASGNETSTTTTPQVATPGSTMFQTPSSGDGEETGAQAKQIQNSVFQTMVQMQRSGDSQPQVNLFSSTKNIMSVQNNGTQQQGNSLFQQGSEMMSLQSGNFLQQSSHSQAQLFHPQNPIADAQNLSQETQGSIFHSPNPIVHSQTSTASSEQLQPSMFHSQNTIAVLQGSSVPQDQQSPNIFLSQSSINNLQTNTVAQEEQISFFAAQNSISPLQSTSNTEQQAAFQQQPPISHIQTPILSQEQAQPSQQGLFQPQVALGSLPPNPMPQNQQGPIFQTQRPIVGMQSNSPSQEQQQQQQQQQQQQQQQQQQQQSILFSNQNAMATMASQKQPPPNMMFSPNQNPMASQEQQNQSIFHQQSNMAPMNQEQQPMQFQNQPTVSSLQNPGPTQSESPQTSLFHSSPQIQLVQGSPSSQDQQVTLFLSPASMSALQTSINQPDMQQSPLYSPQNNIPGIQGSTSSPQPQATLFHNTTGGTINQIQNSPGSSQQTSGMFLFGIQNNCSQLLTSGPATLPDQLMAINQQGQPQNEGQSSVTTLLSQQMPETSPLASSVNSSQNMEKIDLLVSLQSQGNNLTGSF

SMILES: COc1ccc2c(Cc3ccccc3F)c3n(c(=O)c2c1OC)CCc1cc2c(cc1-3)OCO2 [Example 1, 13-(2-fluorobenzyl)-9,10-dimethoxy-5H-[1,3]dioxolo[4,5-g]isoquinolino[3,2-a]isoquinoline-8(6H)-one]
- GI50 at 24 h [1]: 40.3 µM
- NaCl-mediated up-regulation of BGT1 transcript ([2]; FIG. 5A): not changed
- NaCl-mediated up-regulation of AR transcript ([2]; FIG. 5B): not changed
- Inhibition rate of NFAT5 transcription (%) (NFAT5 [3]; 1 μM): 11.2%
- Inhibition rate of NFAT5 transcription (%) (NFAT5 [3]; 10 μM): 81.2%
- inhibiting NFAT5 activity (in words) (NFAT5 [3]; Table 3 and FIG. 1): remarkably excellent in inhibiting NFAT5 activity
- expression of cytokines (IL-6, TNF-α transcription levels) (IL-6 and TNF-α): inhibit the expression of cytokines
- expression of NFAT5 (NFAT5 [4]): suppressed
- GI50 at 24 h [5]: 7.16 µM
- increase of NFAT5 expression caused by LPS (from the phase of transcript) (NFAT5 [6]; 1 μM for 1 hour, LPS 12 hours, real-time PCR): suppressed
- NFAT5 protein level increased by LPS (cytoplasm/nucleus) (NFAT5 [6]; 1 μM pre-treatment 1 hour, LPS 1 μg/ml 24 hours): reduced
- inhibitory effect on the differentiation of Th17 (Th17 cells): inhibitory effect on the differentiation of Th17 as similar as berberine
- GI50 at 24 h [7]: 26.1 µM
- GI50 at 24 h [8]: 84.2 µM

Source: patent US9650389B2, “8-oxoprotoberberine derivative or pharmaceutically acceptable salt thereof, preparation method therefor and pharmaceutical composition for preventing or treating diseases associated with activity of NFAT5, containing same as active ingredient” (Korea Research Institute of Chemical Technology, priority 2013, dated 2017)
